Measured values from patent US20260007681A1, “INDOLE DERIVATIVES AS ESTROGEN RECEPTOR DEGRADERS” (REGENTS OF THE UNIVERSITY OF MICHIGAN, priority 2022, published 2026).

Molecular target: ER (Homo sapiens (Human), UniProt P03372)
Test: Western blot analysis (Compounds B1-B278)
Type: cell-based
Settings: ER degradation by traditional Western blot; DC50 classes
How it was run: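 Compound-treated cells were lysed in RIPA buffer (Tris.HCl pH 7.6, 1% NP-40, deoxycholate, 0.1% SDS) with protease inhibitors; equal protein was resolved on 10% SDS-PAGE, transferred to PVDF and immunoblotted. Band intensities were quantified and normalized to GAPDH.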

Chain of ER (P03372 whole entry): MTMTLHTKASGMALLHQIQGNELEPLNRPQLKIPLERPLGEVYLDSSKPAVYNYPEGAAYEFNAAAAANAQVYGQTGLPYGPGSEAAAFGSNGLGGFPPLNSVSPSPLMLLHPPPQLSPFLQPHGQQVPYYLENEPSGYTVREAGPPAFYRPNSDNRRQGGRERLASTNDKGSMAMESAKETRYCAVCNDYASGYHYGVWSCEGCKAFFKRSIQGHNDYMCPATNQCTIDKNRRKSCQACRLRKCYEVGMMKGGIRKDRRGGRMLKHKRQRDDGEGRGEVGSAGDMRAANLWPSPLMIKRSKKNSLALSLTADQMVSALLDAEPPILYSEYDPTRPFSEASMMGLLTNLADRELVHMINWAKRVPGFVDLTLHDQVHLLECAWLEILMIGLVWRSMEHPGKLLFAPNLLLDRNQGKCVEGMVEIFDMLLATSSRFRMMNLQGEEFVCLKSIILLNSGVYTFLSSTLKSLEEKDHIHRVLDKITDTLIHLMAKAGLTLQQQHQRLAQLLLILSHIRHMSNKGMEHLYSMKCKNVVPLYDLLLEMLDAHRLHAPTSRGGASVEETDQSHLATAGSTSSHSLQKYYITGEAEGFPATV

| Compound | Traditional Western Degradation Potency |
| --- | --- |
| C[C@@H]1Cc2c([nH]c3ccccc23)[C@@H](c2c(F)cc(CN3CCC4(CCC(C(=O)N5Cc6cc7c(cc6C5)C(=O)N(C5CCC(=O)NC5=O)C7=O)CC4)CC3)cc2F)N1CC(F)F (stereo partly drawn) [Compound B103, 6-(3-(4-((1R,3R)-2-(2,2-difluoroethyl)-3-methyl-2,3,4,9-tetrahydro-1H-pyrido[3,4-b]indol-1-yl)-3,5-difluorobenzyl)-3-azaspiro[5.5]undecane-9-carbonyl)-2-(2,6-dioxopiperidin-3-yl)-6,7-dihydropyrrolo[3,4-f]isoindole-1,3(2H,5H)-dione] | C (“C”: >100 nM) |
| C[C@@H]1Cc2c([nH]c3ccccc23)[C@H](c2c(F)cc(CN3CCC4(CCC(C(=O)N5Cc6cc7c(cc6C5)C(=O)N(C5CCC(=O)NC5=O)C7=O)CC4)CC3)cc2F)N1CC(F)F (stereo partly drawn) [Compound B104, 6-(3-(4-((1S,3R)-2-(2,2-difluoroethyl)-3-methyl-2,3,4,9-tetrahydro-1H-pyrido[3,4-b]indol-1-yl)-3,5-difluorobenzyl)-3-azaspiro[5.5]undecane-9-carbonyl)-2-(2,6-dioxopiperidin-3-yl)-6,7-dihydropyrrolo[3,4-f]isoindole-1,3(2H,5H)-dione] | C (“C”: >100 nM) |
| C[C@@H]1Cc2c([nH]c3ccccc23)[C@@H](c2c(F)cc(C3CCN(C(=O)[C@H]4CC[C@@H](N5Cc6cc7c(cc6C5)C(=O)N(C5CCC(=O)NC5=O)C7=O)CC4)CC3)cc2F)N1CC(F)F (stereo partly drawn) [Compound B105, 6-((1S,4s)-4-(4-(4-((1R,3R)-2-(2,2-difluoroethyl)-3-methyl-2,3,4,9-tetrahydro-1H-pyrido[3,4-b]indol-1-yl)-3,5-difluorophenyl)piperidine-1-carbonyl)cyclohexyl)-2-(2,6-dioxopiperidin-3-yl)-6,7-dihydropyrrolo[3,4-f]isoindole-1,3(2H,5H)-dione] | B (“B”: 10-100 nM) |
| C[C@@H]1Cc2c([nH]c3ccccc23)[C@@H](c2c(F)cc(C3CCN(C(=O)[C@H]4CC[C@H](N5Cc6cc7c(cc6C5)C(=O)N(C5CCC(=O)NC5=O)C7=O)CC4)CC3)cc2F)N1CC(F)F (stereo partly drawn) [Compound B106, 6-((1R,4r)-4-(4-(4-((1R,3R)-2-(2,2-difluoroethyl)-3-methyl-2,3,4,9-tetrahydro-1H-pyrido[3,4-b]indol-1-yl)-3,5-difluorophenyl)piperidine-1-carbonyl)cyclohexyl)-2-(2,6-dioxopiperidin-3-yl)-6,7-dihydropyrrolo[3,4-f]isoindole-1,3(2H,5H)-dione] | A (“A”: <10 nM) |
| C[C@@H]1Cc2c([nH]c3ccccc23)[C@@H](c2ncc(C3=CCC(C(=O)N4CCC(N5Cc6cc7c(cc6C5)C(=O)N(C5CCC(=O)NC5=O)C7=O)CC4)CC3)cc2F)N1CC(F)F (stereo partly drawn) [Compound B109, 6-(1-(4-(6-((1S,3R)-2-(2,2-difluoroethyl)-3-methyl-2,3,4,9-tetrahydro-1H-pyrido[3,4-b]indol-1-yl)-5-fluoropyridin-3-yl)cyclohex-3-ene-1-carbonyl)piperidin-4-yl)-2-(2,6-dioxopiperidin-3-yl)-6,7-dihydropyrrolo[3,4-f]isoindole-1,3(2H,5H)-dione] | C (“C”: >100 nM) |
| C[C@@H]1Cc2c([nH]c3ccccc23)[C@@H](c2c(F)cc(C3CCC(C(=O)N4CCC(N5Cc6cc7c(cc6C5)C(=O)N(C5CCC(=O)NC5=O)C7=O)CC4)CC3)cc2F)N1CC(F)(F)CO (stereo partly drawn) [Compound B110, 6-(1-(4-(4-((1R,3R)-2-(2,2-difluoro-3-hydroxypropyl)-3-methyl-2,3,4,9-tetrahydro-1H-pyrido[3,4-b]indol-1-yl)-3,5-difluorophenyl)cyclohexane-1-carbonyl)piperidin-4-yl)-2-(2,6-dioxopiperidin-3-yl)-6,7-dihydropyrrolo[3,4-f]isoindole-1,3(2H,5H)-dione] | C (“C”: >100 nM) |
| COc1cc(C2CCC(C(=O)N3CCC(N4Cc5cc6c(cc5C4)C(=O)N(C4CCC(=O)NC4=O)C6=O)CC3)CC2)cnc1[C@@H]1c2[nH]c3ccccc3c2C[C@@H](C)N1CC(F)F (stereo partly drawn) [Compound B115, 6-(1-(4-(6-((1S,3R)-2-(2,2-difluoroethyl)-3-methyl-2,3,4,9-tetrahydro-1H-pyrido[3,4-b]indol-1-yl)-5-methoxypyridin-3-yl)cyclohexane-1-carbonyl)piperidin-4-yl)-2-(2,6-dioxopiperidin-3-yl)-6,7-dihydropyrrolo[3,4-f]isoindole-1,3(2H,5H)-dione] | C (“C”: >100 nM) |
| C[C@@H]1Cc2c([nH]c3ccccc23)[C@@H](c2cnc(N3CC4(CCC(CN5Cc6cc7c(cc6C5)C(=O)N(C5CCC(=O)NC5=O)C7=O)CC4)C3)nc2)N1CC(C)(C)F (stereo partly drawn) [Compound B184, 2-(2,6-dioxopiperidin-3-yl)-6-((2-(5-((1R,3R)-2-(2-fluoro-2-methylpropyl)-3-methyl-2,3,4,9-tetrahydro-1H-pyrido[3,4-b]indol-1-yl)pyrimidin-2-yl)-2-azaspiro[3.5]nonan-7-yl)methyl) 6,7-dihydropyrrolo[3,4-f]isoindole-1,3(2H,5H)-dione] | C (“C”: >100 nM) |
| C[C@@H]1Cc2c([nH]c3ccccc23)[C@@H](c2cnc(N3CC4(CCC(CN5Cc6cc7c(cc6C5)C(=O)N(C5CCC(=O)NC5=O)C7=O)CC4)C3)nc2)N1CC(F)F (stereo partly drawn) [Compound B185, 6-((2-(5-((1R,3R)-2-(2,2-difluoroethyl)-3-methyl-2,3,4,9-tetrahydro-1H-pyrido[3,4-b]indol-1-yl)pyrimidin-2-yl)-2-azaspiro[3.5]nonan-7-yl)methyl)-2-(2,6-dioxopiperidin-3-yl)-6,7-dihydropyrrolo[3,4-f]isoindole-1,3(2H,5H)-dione] | C (“C”: >100 nM) |
| C[C@@H]1Cc2c([nH]c3ccccc23)[C@@H](c2cnc(N3CCC4(CC3)CC(CN3Cc5cc6c(cc5C3)C(=O)N(C3CCC(=O)NC3=O)C6=O)C4)nc2)N1CC(C)(C)F (stereo partly drawn) [Compound B186, 2-(2,6-dioxopiperidin-3-yl)-6-((7-(5-((1R,3R)-2-(2-fluoro-2-methylpropyl)-3-methyl-2,3,4,9-tetrahydro-1H-pyrido[3,4-b]indol-1-yl)pyrimidin-2-yl)-7-azaspiro[3.5]nonan-2-yl)methyl)-6,7-dihydropyrrolo[3,4-f]isoindole-1,3(2H,5H)-dione] | C (“C”: >100 nM) |
| C[C@@H]1Cc2c([nH]c3ccccc23)[C@@H](c2cnc(N3CCC4(CC3)CC(CN3Cc5cc6c(cc5C3)C(=O)N(C3CCC(=O)NC3=O)C6=O)C4)nc2)N1CC(F)F (stereo partly drawn) [Compound B187, 6-((7-(5-((1R,3R)-2-(2,2-difluoroethyl)-3-methyl-2,3,4,9-tetrahydro-1H-pyrido[3,4-b]indol-1-yl)pyrimidin-2-yl)-7-azaspiro[3.5]nonan-2-yl)methyl)-2-(2,6-dioxopiperidin-3-yl)-6,7-dihydropyrrolo[3,4-f]isoindole-1,3(2H,5H)-dione] | B (“B”: 10-100 nM) |

Now from value to compound:

| Traditional Western Degradation Potency | Compound |
| --- | --- |
| C (“C”: >100 nM) | COc1cc([C@H]2CC[C@@H](C(=O)N3CCC(N4Cc5cc6c(cc5C4)C(=O)N(C4CCC(=O)NC4=O)C6=O)CC3)CC2)ncc1[C@@H]1c2[nH]c3ccccc3c2C[C@@H](C)N1CC(F)F (stereo partly drawn) [Compound B107, 6-(1-((1S,4s)-4-(5-((1R,3R)-2-(2,2-difluoroethyl)-3-methyl-2,3,4,9-tetrahydro-1H-pyrido[3,4-b]indol-1-yl)-4-methoxypyridin-2-yl)cyclohexane-1-carbonyl)piperidin-4-yl)-2-(2,6-dioxopiperidin-3-yl)-6,7-dihydropyrrolo[3,4-f]isoindole-1,3(2H,5H)-dione] |
| C (“C”: >100 nM) | COc1cc([C@H]2CC[C@H](C(=O)N3CCC(N4Cc5cc6c(cc5C4)C(=O)N(C4CCC(=O)NC4=O)C6=O)CC3)CC2)ncc1[C@@H]1c2[nH]c3ccccc3c2C[C@@H](C)N1CC(F)F (stereo partly drawn) [Compound B108, 6-(1-((1R,4r)-4-(5-((1R,3R)-2-(2,2-difluoroethyl)-3-methyl-2,3,4,9-tetrahydro-1H-pyrido[3,4-b]indol-1-yl)-4-methoxypyridin-2-yl)cyclohexane-1-carbonyl)piperidin-4-yl)-2-(2,6-dioxopiperidin-3-yl)-6,7-dihydropyrrolo[3,4-f]isoindole-1,3(2H,5H)-dione] |
| B (“B”: 10-100 nM) | COc1cc([C@H]2CC[C@H](C(=O)N3CCC(N4Cc5cc6c(cc5C4)C(=O)N(C4CCC(=O)NC4=O)C6=O)CC3)CC2)ccc1[C@@H]1c2[nH]c3ccccc3c2C[C@@H](C)N1CC(F)F (stereo partly drawn) [Compound B111, 6-(1-((1R,4r)-4-(4-((1R,3R)-2-(2,2-difluoroethyl)-3-methyl-2,3,4,9-tetrahydro-1H-pyrido[3,4-b]indol-1-yl)-3-methoxyphenyl)cyclohexane-1-carbonyl)piperidin-4-yl)-2-(2,6-dioxopiperidin-3-yl)-6,7-dihydropyrrolo[3,4-f]isoindole-1,3(2H,5H)-dione] |
| C (“C”: >100 nM) | COc1cc([C@H]2CC[C@@H](C(=O)N3CCC(N4Cc5cc6c(cc5C4)C(=O)N(C4CCC(=O)NC4=O)C6=O)CC3)CC2)ccc1[C@@H]1c2[nH]c3ccccc3c2C[C@@H](C)N1CC(F)F (stereo partly drawn) [Compound B112, 6-(1-((1S,4s)-4-(4-((1R,3R)-2-(2,2-difluoroethyl)-3-methyl-2,3,4,9-tetrahydro-1H-pyrido[3,4-b]indol-1-yl)-3-methoxyphenyl)cyclohexane-1-carbonyl)piperidin-4-yl)-2-(2,6-dioxopiperidin-3-yl)-6,7-dihydropyrrolo[3,4-f]isoindole-1,3(2H,5H)-dione] |
| C (“C”: >100 nM) | COc1nc(C2CCC(C(=O)N3CCC(N4Cc5cc6c(cc5C4)C(=O)N(C4CCC(=O)NC4=O)C6=O)CC3)CC2)ccc1[C@@H]1c2[nH]c3ccccc3c2C[C@@H](C)N1CC(F)F (stereo partly drawn) [Compound B113, 6-(1-(4-(5-((1R,3R)-2-(2,2-difluoroethyl)-3-methyl-2,3,4,9-tetrahydro-1H-pyrido[3,4-b]indol-1-yl)-6-methoxypyridin-2-yl)cyclohexane-1-carbonyl)piperidin-4-yl)-2-(2,6-dioxopiperidin-3-yl)-6,7-dihydropyrrolo[3,4-f]isoindole-1,3(2H,5H)-dione] |
